Laboratory results taken from patent US9512128B2 (BAYER CROPSCIENCE AG, priority 2012, dated 2016).
Like-named read-outs stand apart in the source and are kept apart here.

Assay: log P by HPLC on reversed-phase columns (C 18), EEC directive 79/831 Annex V.A8
Type: physicochemical
Conditions: for chromatographic logP: reversed-phase C18 HPLC column; for logP[a]: method [a]; for logP[b]: method [b]
Method: The log P values were determined according to EEC directive 79/831 Annex V.A8 by HPLC (High Performance Liquid Chromatography) on reversed-phase columns (C 18), using the methods below:
[a] The LC-MS determination in the acidic range is carried out at pH 2.7 with 0.1% aqueous formic acid and acetonitrile (contains 0.1% formic acid) as mobile phases; linear gradient from 10% acetonitrile to 95% acetonitrile.
[b] The LC-MS determination in the neutral range is carried out at pH 7.8 using the mobile phases 0.001 molar aqueous ammonium bicarbonate solution and acetonitrile; linear gradient from 10% acetonitrile to 95% acetonitrile.

[1] = pH 2.7, acidic range, pH 2.7, 0.1% aqueous formic acid / acetonitrile, read-out: log P[a]
[2] = pH 7.8, neutral range, pH 7.8, 0.001 molar aqueous ammonium bicarbonate / acetonitrile, read-out: log P[b]
[3] = pH 2.7, method [a], read-out: logP[a]
[4] = pH 7.8, method [b], read-out: logP[b]

SMILES	logP[a]	logP[b]	also measured
Cc1ccc(Br)cc1SSc1cc(Br)ccc1C	–	–	chromatographic logP [1]: > 7.36; chromatographic logP [2]: > 7.36
Cc1cc(C)c([S+]([O-])CC(F)(F)F)cc1-n1cnc2c(cnn2C)c1=O (racemic) [Compound 9]	1.74	1.74	–
Cc1cc(F)c(-n2c(C)nc3c(cnn3CC(F)(F)F)c2=O)cc1[S+]([O-])CC(F)(F)F (racemic) [Compound 22]	2.52	–	–
Cn1ncc2c(=O)n(-c3ccc(Cl)c([S+]([O-])CC(F)(F)F)c3)cnc21 (racemic) [Compound 28]	1.80	1.80	–
Cn1ncc2c(=O)n(-c3ccc(C(F)(F)F)c([S+]([O-])CC(F)(F)F)c3)cnc21 (racemic) [Compound 29]	2.16	2.11	–
Cc1cc(C)c([S+]([O-])CC(F)(F)F)cc1-n1cnc2c(ncn2C)c1=O (racemic) [Compound 58]	1.43	1.40	–
Cc1cc(C)c([S+]([O-])CC(F)(F)F)cc1-n1c(C)nc2c(ncn2C)c1=O (racemic) [Compound 59]	1.52	1.50	–
Cc1ccc(B2OC(C)(C)C(C)(C)O2)cc1SCC(F)(F)F [4,4,5,5-Tetramethyl-2-{4-methyl-3-[(2,2,2-trifluoroethyl)sulphanyl]phenyl}-1,3,2-dioxaborolane]	–	–	chromatographic logP [1]: 3.73; chromatographic logP [2]: 3.74
Cc1cc(F)c(NC(=O)c2cnn(C)c2N)cc1SCC(F)(F)F [5-Amino-N-{2-fluoro-4-methyl-5-[(2,2,2-trifluoroethyl)sulphanyl]phenyl}-1-methyl-1H-pyrazole-4-carboxamide]	–	–	chromatographic logP [1]: 2.44; chromatographic logP [2]: 2.23
Cc1ccc(Br)cc1S(=O)(=O)Cl [5-Bromo-2-methylbenzenesulphonyl chloride]	–	–	chromatographic logP [1]: 3.73; chromatographic logP [2]: 3.74
Cc1cc(F)c(-n2c(C(F)(F)F)nc3c(cnn3C)c2=O)cc1SCC(F)(F)F [Compound 13, 5-{2-Fluoro-4-methyl-5-[(2,2,2-trifluoroethyl)sulphanyl]phenyl}-1-methyl-6-(trifluoromethyl)-1,5-dihydro-4H-pyrazolo[3,4-d]pyrimidin-4-one]	–	–	chromatographic logP [1]: 3.75; chromatographic logP [3]: 3.75; chromatographic logP [4]: 3.94; chromatographic logP [2]: 3.94
Cc1cc(F)c(-n2c(C)nc3c(cnn3C)c2=O)cc1SCC(F)(F)F [Compound 14, 5-{2-Fluoro-4-methyl-5-[(2,2,2-trifluoroethyl)sulphanyl]phenyl}-1,6-dimethyl-1,5-dihydro-4H-pyrazolo[3,4-d]pyrimidin-4-one]	–	–	chromatographic logP [1]: 2.84; chromatographic logP [3]: 2.84; chromatographic logP [4]: 2.79; chromatographic logP [2]: 2.79
Cc1cc(F)c(-n2c(C(F)(F)F)nc3c(cnn3C)c2=O)cc1[S+]([O-])CC(F)(F)F (stereo not shown) [Compound 16, 5-{2-Fluoro-4-methyl-5-[(2,2,2-trifluoroethyl)sulphinyl]phenyl}-1-methyl-6-(trifluoromethyl)-1,5-dihydro-4H-pyrazolo[3,4-d]pyrimidin-4-one]	–	–	log P[a] (acidic range, pH 2.7, 0.1% aqueous formic acid / acetonitrile): 2.74; log P[b] (neutral range, pH 7.8, 0.001 molar aqueous ammonium bicarbonate / acetonitrile): 2.70; chromatographic logP [1]: 2.67; chromatographic logP [3]: 2.67; chromatographic logP [4]: 2.63; chromatographic logP [2]: 2.63
Cc1cc(F)c(-n2cnc3c(cnn3CC(F)(F)F)c2=O)cc1SCC(F)(F)F [Compound 17]	3.31	3.21	–
Cc1ccc(-n2cnc3c(c(C)nn3C)c2=O)cc1SCC(F)(F)F [Compound 30]	2.81	2.73	–
Cc1nn(C)c2ncn(-c3ccc(C(F)(F)F)c(SCC(F)(F)F)c3)c(=O)c12 [Compound 31]	3.06	2.99	–
Cc1nn(C)c2ncn(-c3ccc(C#N)c([S+]([O-])CC(F)(F)F)c3)c(=O)c12 (stereo not shown) [Compound 35]	1.74	1.70	–
Cc1ccc(-n2cnc3nn(C)c(C)c3c2=O)cc1SCC(F)(F)F [Compound 44]	2.38	2.33	–

SMILES	logP[a]	logP[b]	also measured
Cc1c2c(=O)n(-c3ccc(C#N)c(SCC(F)(F)F)c3)cnc2nn1C [Compound 50]	1.99	1.92	–
Cc1cc(C)c(-n2cnc3c(ncn3C)c2=O)cc1SCC(F)(F)F [Compound 55]	2.28	2.23	–
Cc1cc(C)c(-n2cnc3scnc3c2=O)cc1SCC(F)(F)F [Compound 62]	2.67	2.64	–
Cc1cc(F)c(-n2c(C(F)(F)F)nc3scnc3c2=O)cc1SCC(F)(F)F [Compound 65]	3.55	3.51	–
O=c1c2ncsc2ncn1-c1cc([S+]([O-])CC(F)(F)F)c(Cl)cc1Cl (stereo not shown) [Compound 67]	1.96	1.96	–
Cc1nc2c(=O)n(-c3cc([S+]([O-])CC(F)(F)F)c(Cl)cc3Cl)cnc2s1 (stereo not shown) [Compound 74]	2.22	2.17	–
O=c1c2scnc2ncn1-c1cc([S+]([O-])CC(F)(F)F)c(Cl)cc1Cl (stereo not shown) [Compound 80]	2.01	1.98	–
Cc1cc(C)c([S+]([O-])CC(F)(F)F)cc1-n1cnc2ncsc2c1=O (stereo not shown) [Compound 81]	1.65	1.62	–
Cc1ccc(-n2cnc3sccc3c2=O)cc1SCC(F)(F)F [Compound 83, 3-{4-Methyl-3-[(2,2,2-trifluoroethyl)sulphanyl]phenyl}thieno[2,3-d]pyrimidin-4(3H)-one]	–	–	chromatographic logP [1]: 3.04; chromatographic logP [3]: 3.09; chromatographic logP [4]: 3.01; chromatographic logP [2]: 3.02
COc1ccc(-n2cnc3sccc3c2=O)cc1SCC(F)(F)F [Compound 84]	2.75	2.71	–
O=c1c2ccsc2ncn1-c1ccc(Cl)c(SCC(F)(F)F)c1 [Compound 85]	3.09	3.03	–
N#Cc1ccc(-n2cnc3sccc3c2=O)cc1SCC(F)(F)F [Compound 93]	2.48	2.46	–
O=c1c2ccsc2ncn1-c1ccc(C(F)(F)F)c(SCC(F)(F)F)c1 [Compound 94]	3.27	3.21	–
O=c1c2ccsc2ncn1-c1cc([S+]([O-])CC(F)(F)F)c(Cl)cc1Cl (stereo not shown) [Compound 98]	2.53	2.53	–
O=c1c2ccsc2ncn1-c1ccc(C(F)(F)F)c([S+]([O-])CC(F)(F)F)c1 (stereo not shown) [Compound 99]	2.54	2.51	–
Cc1ccc(-n2cnc3ccsc3c2=O)cc1SCC(F)(F)F [Compound 100]	2.87	2.79	–
Cc1ccc(-n2cnc3ccsc3c2=O)cc1[S+]([O-])CC(F)(F)F (stereo not shown) [Compound 101]	1.82	1.81	–

The next lines start with results.

logP[a]	logP[b]	SMILES	also measured
2.11	2.09	Cn1ncc2c(=O)n(-c3cc([S+]([O-])CC(F)(F)F)c(Cl)cc3Cl)cnc21 (racemic) [Compound 4]	–
1.86	1.84	Cc1cc(C)c([S+]([O-])CC(F)(F)F)cc1-n1c(C)nc2c(cnn2C)c1=O (racemic) [Compound 10]	–
2.94	2.94	Cn1ncc2c(=O)n(-c3cc(SCC(F)(F)F)c(Cl)cc3Cl)cnc21 [Compound 3]	–
3.18	3.11	Cc1nc2c(cnn2C)c(=O)n1-c1cc(SCC(F)(F)F)c(Cl)cc1Cl [Compound 5]	–
2.92	2.86	Cc1cc(C)c(-n2c(C)nc3c(cnn3C)c2=O)cc1SCC(F)(F)F [Compound 6]	–
2.79	2.73	Cc1cc(C)c(-n2cnc3c(cnn3C)c2=O)cc1SCC(F)(F)F [Compound 7]	–
2.56	2.54	Cc1ccc(-n2cnc3c(cnn3C)c2=O)cc1SCC(F)(F)F [Compound 8]	–
3.83	3.77	Cc1cc(C)c(-n2c(C(F)(F)F)nc3c(cnn3C)c2=O)cc1SCC(F)(F)F [Compound 11]	–
2.58	2.53	Cn1ncc2c(=O)n(-c3ccc(Cl)c(SCC(F)(F)F)c3)cnc21 [Compound 23]	–
2.07	2.06	Cn1ncc2c(=O)n(-c3ccc(C#N)c(SCC(F)(F)F)c3)cnc21 [Compound 24]	–
2.82	2.75	Cn1ncc2c(=O)n(-c3ccc(C(F)(F)F)c(SCC(F)(F)F)c3)cnc21 [Compound 25]	–
3.27	3.19	Cc1cc(F)c(-n2c(C(F)(F)F)nc3nn(C)cc3c2=O)cc1SCC(F)(F)F [Compound 42]	–
2.45	2.36	Cc1c2c(=O)n(-c3ccc(Cl)c(SCC(F)(F)F)c3)cnc2nn1C [Compound 48]	–
2.36	2.35	Cc1cc(C)c(-n2c(C)nc3c(ncn3C)c2=O)cc1SCC(F)(F)F [Compound 56]	–
2.19	2.17	Cn1cnc2c(=O)n(-c3cc(SCC(F)(F)F)c(Cl)cc3F)cnc21 [Compound 57]	–
3.09	3.02	Cc1nc2c(=O)n(-c3cc(SCC(F)(F)F)c(Cl)cc3Cl)cnc2s1 [Compound 71]	–
2.79	2.76	O=c1c2scnc2ncn1-c1cc(SCC(F)(F)F)c(Cl)cc1Cl [Compound 77]	–
3.51	3.42	O=c1c2ccsc2ncn1-c1cc(SCC(F)(F)F)c(Cl)cc1Cl [Compound 90]	–
